The results in this text go back to ChEMBL document CHEMBL1151121, “1H-nmr analysis of herbimycins and dihydro-herbimycins” (1988).

Converted amounts (≈) assume the structure as drawn.

One test concerns P388. The experiment in a line: Cytotoxicity against mouse P388 cells. The test is classed as functional. The following applies: read-out: ED50 (the source's name).
A further test has as its system KB. Description: Cytotoxicity against human KB cells. In kind it is functional. The note with it: read-out: ED50 (the source's name).

Consider `CO[C@H]1/C=C\C=C(/C)C(=O)Nc2cc(O)cc(c2O)C[C@@H](C)C[C@H](OC)[C@H](O)[C@@H](C)/C=C(\C)[C@@H]1OC(N)=O`, for which the EC50 came to 0.34 µg/mL (≈ 0.638 µM) in the test on P388 and 3.49 µg/mL (≈ 6.55 µM) with KB.

As for `CO[C@H]1[C@@H](OC)C[C@H](C)[C@@H](OC)c2cc(O)cc(c2O)NC(=O)/C(C)=C/C=C\[C@H](OC)[C@@H](OC(N)=O)/C(C)=C/[C@@H]1C` [DIHYDRO-HERBIMYCIN A], the EC50 in the test with P388 was 0.022 µg/mL (≈ 0.0381 µM); in the test on KB it was 0.3 µg/mL (≈ 0.52 µM).

As for `CO[C@H]1/C=C\C=C(/C)C(=O)NC2=CC(=O)C=C(C2=O)[C@H](OC)[C@@H](C)C[C@H](OC)[C@H](O)[C@@H](C)/C=C(\C)[C@@H]1OC(N)=O` [HERBIMYCIN C], the EC50 in the test on P388 was 0.17 µg/mL (≈ 0.303 µM); in the test with KB, 0.12 µg/mL (≈ 0.214 µM).

As for `CO[C@H]1[C@@H](OC)C[C@H](C)[C@@H](OC)C2=CC(=O)C=C(NC(=O)/C(C)=C/C=C/[C@H](OC)[C@@H](OC(N)=O)/C(C)=C/[C@@H]1C)C2=O` [HERBIMYCIN], the EC50 was 0.0051 µg/mL (≈ 0.00887 µM) with P388 and 0.12 µg/mL (≈ 0.209 µM) in the test on KB.
